Measured values as given in US8853227B2, “Methotrexate adjuvants to reduce toxicity and methods for using the same” (Tosk, Incorporated, priority 2008, dated 2014).

Legend:
[1] = Mouse Study I (protection from MTX-induced weight loss, LPS/MTX model); format: in vivo, C57BL/6 mice; conditions: 10 or 30 mg/kg ip 3 hr before and after MTX, LPS+MTX; p<0.004 (10 mg/kg), p<0.0005 (30 mg/kg) vs LPS+MTX
Procedure: C57BL/6 mice (10 animals/treatment group) were dosed on Day 1 with LPS (5 μg, i.p.). On Day 2, the animals were treated with 200 mg/kg MTX+10 or 30 mg/kg TK-112690 3 hr before and 3 hr after the MTX treatment. On Day 3, the animals were dosed MTX 100 mg/kg+10 or 30 mg/kg TK±3 hr. On day 8, the Day 8-Day 1 weight was determined and results subject to ANOVA. Group 1=saline alone, Group 2=MTX alone, Group 3=LPS alone, Group 4=MTX+LPS, Group 5=10 mg/kg TK-112690+MTX+LPS or Group 6=30 mg/kg TK-112690+MTX+LPS.
This mouse model is modified from a published procedure (de Koning et al., Int Immunol 18: 941 (2006)). Mice are treated on day one with a single intraperitoneal (ip) dose of lipopolysaccharide (LPS), followed by two consecutive days with 200 and 100 mg/kg ip methotrexate, respectively. Controls include saline alone for days 1, 2, and 3, saline on day 1 plus MTX on days 2 and 3 and LPS on day one with saline injection on days 2 and 3. Experimental groups are given LPS on day one and 10 or 30 mg/kg, TK-112690, a representative 2,2′-anhydropyrimidine test article, ip 3 hours before, and 3 hours after, methotrexate injection on days 2 and 3. Animal weights are measured every day after the first injection with experiment termination five days after the second methotrexate injection (day 8). Weight loss is representative of MTX-induced toxicity, and one aspect of MTX-induced mucositis. […]

[2] = Mouse Study VI (plasma uridine and TK-112690 following TK-112690 treatment); format: in vivo, CD-1 female mice
Procedure: In this study, CD-1 female mice were injected ip with 120 mg/kg TK-112690 and plasma from the animals analyzed by HPLC using UV detection for TK-112690 and uridine. Concentrations of uridine and TK-112690 in plasma samples collected 0.08, 0.50, 1, 2, 4 or 12 hours post TK-112690 injection were determined by HPLC using UV detection. […] An increase in plasma uridine was noted almost immediately following administration of TK-112690. At 0.5 hour post TK-112690 dose, a 100 μg/mL plasma concentration TK-112690 is associated with a plasma uridine concentration of approximately 2 μg/mL of uridine (baseline uridine concentration approximately 0.5 μg/mL). As expected, inhibition of UPase by TK-112690 results in elevation of plasma uridine.
Plasma uridine concentration was determined by HPLC using UV detectionafter animals were treated with TK-112690 as follows. TK-112690 was dissolved in PBS to achieve a concentration of 500 mg/mL. CD-1 female mice were injected ip with a range of TK-112690 doses (0, 15, 30, 60 and 120 mg/kg) and plasma from the animals analyzed for TK-112690 uridine concentrations expected to be elevated through UPase inhibition by TK-112690. Plasma uridine concentrations were determined from plasma samples collected 0.08, 0.50, 1, 2, 4 or 12 hours post TK-112690 injection.
HPLC analysis was done at room temperature using a ThermoFinnigan Spectra System equipped with degasser, pump, autosampler and UV detector. Chromatograms will be constructed from a chart recorder equipped with a pen. […]
The micromolar concentration of plasma uridine was determined by linear equation (y=mx+b) generated from uridine and 5-FU calibration curve. The y value is calculated by taking ratio of peak heights (mm) of uridine and 5-FU. All peak heights from HPLC chromatograms were measured in millimeters using a ruler.
An identical approach was employed to quantitate TK-112690 in the samples except the response for TK-112690 was attenuated by a response factor determined from the injection into the HPLC of identical amounts of TK-112690 and uridine, […]

Cc1cn2c(nc1=O)O[C@H]1[C@H](O)[C@@H](CO)O[C@H]12 [TK-112690, 2,2′-anhydro-5-methyluridine]
protection from MTX-induced weight loss (Day 8-Day 1 mean weight change) [1]: highly significant
dose dependence of plasma concentrations of TK-112690 ([2]; 0, 15, 30, 60 and 120 mg/kg ip): increased with increasing doses
plasma uridine concentration ([2]; 0.5 hour post TK-112690 dose, at 100 μg/mL plasma TK-112690, baseline approximately 0.5 μg/mL): approximately 2 μg/mL
concentration at 0.5 h ([2]; female, CD-1, plasma, 120 mg/kg, 0.5 hour post TK-112690 dose, ip, mouse): 100 µg/mL
